# Measured values published in ChEMBL document CHEMBL1221346, “Synthesis and biological activity of N-substituted aminocarbonyl-1,3-dioxolanes as VLA-4 antagonists” (Bioorg Med Chem Lett, 2010).
# Peptide text beside a SMILES is read from it. * marks the point of attachment. Tos = Cc1ccc(S(=O)(=O)*)cc1
# How the values were obtained:
# Integrin alpha-4 = biological target: T1, Integrin alpha-4 (Homo sapiens, UniProt P13612); assay: Displacement of VCAM1 from VLA4 receptor in human U937 cells; type: cell-based, U-937
# T1 sequence (P13612 whole entry): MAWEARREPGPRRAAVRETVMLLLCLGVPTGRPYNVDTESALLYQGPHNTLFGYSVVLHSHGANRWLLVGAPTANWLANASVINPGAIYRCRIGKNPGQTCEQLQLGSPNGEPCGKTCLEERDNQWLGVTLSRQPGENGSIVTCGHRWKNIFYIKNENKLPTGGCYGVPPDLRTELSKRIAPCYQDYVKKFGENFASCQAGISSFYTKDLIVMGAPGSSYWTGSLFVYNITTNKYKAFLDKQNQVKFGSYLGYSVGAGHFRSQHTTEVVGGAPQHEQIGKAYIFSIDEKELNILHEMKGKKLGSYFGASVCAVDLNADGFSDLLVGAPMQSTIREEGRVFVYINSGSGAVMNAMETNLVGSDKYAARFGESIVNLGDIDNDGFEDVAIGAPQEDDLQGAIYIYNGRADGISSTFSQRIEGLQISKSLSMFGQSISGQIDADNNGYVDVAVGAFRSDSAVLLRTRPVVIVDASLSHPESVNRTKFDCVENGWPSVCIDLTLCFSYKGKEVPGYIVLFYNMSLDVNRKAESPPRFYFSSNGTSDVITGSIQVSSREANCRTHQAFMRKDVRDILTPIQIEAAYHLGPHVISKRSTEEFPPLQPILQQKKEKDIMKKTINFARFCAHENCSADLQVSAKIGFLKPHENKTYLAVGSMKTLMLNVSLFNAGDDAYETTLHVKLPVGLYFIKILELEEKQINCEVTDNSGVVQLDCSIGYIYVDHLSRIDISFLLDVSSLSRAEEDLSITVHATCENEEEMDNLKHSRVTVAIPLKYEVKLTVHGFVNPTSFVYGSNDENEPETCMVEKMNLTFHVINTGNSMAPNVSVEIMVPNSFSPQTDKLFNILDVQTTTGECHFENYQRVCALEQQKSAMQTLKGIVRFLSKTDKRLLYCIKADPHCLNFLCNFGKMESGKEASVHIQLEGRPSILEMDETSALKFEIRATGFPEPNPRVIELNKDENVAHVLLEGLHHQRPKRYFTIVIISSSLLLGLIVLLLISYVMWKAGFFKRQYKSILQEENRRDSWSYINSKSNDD
# [1] = Metabolic stability in human liver microsome at 8 uM after 1 hr; type: ADME; conditions: liver microsomes, read-out: Stability
# [2] = Oral bioavailability in rat; type: ADME, organism-based; conditions: in vivo
SMILES,IC50 (Integrin alpha-4),"remaining at 1 h, 8 µM [1]",bioavailability [2]
CCCCCCCNC(=O)[C@@H]1OCO[C@H]1C(=O)N[C@@H](Cc1ccc(OCc2c(Cl)cccc2Cl)cc1)C(=O)O,4400 nM,–,–
O=C(Nc1ccc(C[C@H](NC(=O)[C@@H]2OCO[C@H]2C(=O)Nc2ccccc2-c2ccccc2)C(=O)O)cc1)c1ccncc1,2700 nM,–,–
O=C(Nc1ccc(C[C@H](NC(=O)[C@@H]2OCO[C@H]2C(=O)Nc2ccccc2-c2ccccc2)C(=O)O)cc1)c1ccccn1,8300 nM,–,–
O=C(Nc1ccc(C[C@H](NC(=O)[C@@H]2OCO[C@H]2C(=O)Nc2ccccc2-c2ccccc2)C(=O)O)cc1)c1cccnc1,9500 nM,–,–
O=C(Nc1ccc(C[C@H](NC(=O)[C@@H]2OCO[C@H]2C(=O)Nc2ccccc2-c2ccccc2)C(=O)O)cc1)c1cc(Cl)nc(Cl)c1,6300 nM,–,–
O=C(Nc1ccc(C[C@H](NC(=O)[C@@H]2OCO[C@H]2C(=O)Nc2ccccc2-c2ccccc2)C(=O)O)cc1)c1c(Cl)cccc1Cl,100 nM,–,–
O=C(Nc1ccc(C[C@H](NC(=O)[C@@H]2OCO[C@H]2C(=O)Nc2ccccc2-c2ccccc2)C(=O)O)cc1)c1ccccc1,9000 nM,–,–
COc1ccccc1C(=O)Nc1ccc(C[C@H](NC(=O)[C@@H]2OCO[C@H]2C(=O)Nc2ccccc2-c2ccccc2)C(=O)O)cc1,6300 nM,–,–
O=C(O)[C@H](Cc1ccc(OCc2c(F)cccc2F)cc1)NC(=O)[C@@H]1OCO[C@H]1C(=O)Nc1ccccc1-c1ccccc1,7900 nM,–,–
O=C(O)[C@H](Cc1ccc(OCc2ccccc2Cl)cc1)NC(=O)[C@@H]1OCO[C@H]1C(=O)Nc1ccccc1-c1ccccc1,8700 nM,–,–
O=C(O)[C@H](Cc1ccc(OCc2c(Cl)cccc2Cl)cc1)NC(=O)[C@@H]1OCO[C@H]1C(=O)Nc1ccccc1-c1ccccc1,500 nM,–,–
O=C(O)[C@H](Cc1ccc(OCc2c(Cl)cccc2Cl)cc1)NC(=O)[C@@H]1OCO[C@H]1C(=O)NC1CCCCC1,1400 nM,–,–
CNC(=O)[C@@H]1OCO[C@H]1C(=O)N[C@@H](Cc1ccc(OCc2c(Cl)cccc2Cl)cc1)C(=O)O,1200 nM,–,–
CCNC(=O)[C@@H]1OCO[C@H]1C(=O)N[C@@H](Cc1ccc(OCc2c(Cl)cccc2Cl)cc1)C(=O)O,2100 nM,–,–
CCCCNC(=O)[C@@H]1OCO[C@H]1C(=O)N[C@@H](Cc1ccc(OCc2c(Cl)cccc2Cl)cc1)C(=O)O,1500 nM,–,–
CC(C)CCNC(=O)[C@@H]1OCO[C@H]1C(=O)N[C@@H](Cc1ccc(OCc2c(Cl)cccc2Cl)cc1)C(=O)O,1100 nM,–,–
CN(C)C(=O)[C@@H]1OCO[C@H]1C(=O)N[C@@H](Cc1ccc(OCc2c(Cl)cccc2Cl)cc1)C(=O)O,1500 nM,–,–
CC(C)NC(=O)[C@@H]1OCO[C@H]1C(=O)N[C@@H](Cc1ccc(OCc2c(Cl)cccc2Cl)cc1)C(=O)O,6600 nM,–,–
CC(C)(C)NC(=O)[C@@H]1OCO[C@H]1C(=O)N[C@@H](Cc1ccc(OCc2c(Cl)cccc2Cl)cc1)C(=O)O,1200 nM,–,–
O=C(O)[C@H](Cc1ccc(OCc2c(Cl)cccc2Cl)cc1)NC(=O)[C@@H]1OCO[C@H]1C(=O)NC1CC1,300 nM,72%,–

SMILES,IC50 (Integrin alpha-4),"remaining at 1 h, 8 µM [1]",bioavailability [2]
O=C(O)[C@H](Cc1ccc(OCc2c(Cl)cccc2Cl)cc1)NC(=O)[C@@H]1OCO[C@H]1C(=O)Nc1nc2ccccc2s1,600 nM,–,–
O=C(O)[C@H](Cc1ccc(OCc2c(Cl)cccc2Cl)cc1)NC(=O)[C@@H]1OCO[C@H]1C(=O)NCc1cccs1,700 nM,–,–
O=C(O)[C@H](Cc1ccc(OCc2c(Cl)cccc2Cl)cc1)NC(=O)[C@@H]1OCO[C@H]1C(=O)NCCc1c[nH]c2ccccc12,600 nM,–,–
O=C(O)[C@H](Cc1ccc(OCc2c(Cl)cccc2Cl)cc1)NC(=O)[C@@H]1OCO[C@H]1C(=O)NCc1ccc2c(c1)OCO2,3000 nM,–,–
O=C(O)[C@H](Cc1ccc(OCc2c(Cl)cccc2Cl)cc1)NC(=O)[C@@H]1OCO[C@H]1C(=O)Nc1ccccc1F,600 nM,–,–
O=C(O)[C@H](Cc1ccc(OCc2c(Cl)cccc2Cl)cc1)NC(=O)[C@@H]1OCO[C@H]1C(=O)Nc1ccccc1Cl,700 nM,–,–
O=C(O)[C@H](Cc1ccc(OCc2c(Cl)cccc2Cl)cc1)NC(=O)[C@@H]1OCO[C@H]1C(=O)Nc1ccc(Cl)cc1,2800 nM,–,–
COc1ccccc1NC(=O)[C@@H]1OCO[C@H]1C(=O)N[C@@H](Cc1ccc(OCc2c(Cl)cccc2Cl)cc1)C(=O)O,600 nM,–,–
O=C(O)[C@H](Cc1ccc(OCc2c(Cl)cccc2Cl)cc1)NC(=O)[C@@H]1OCO[C@H]1C(=O)Nc1ccccc1,1500 nM,–,–
O=C(O)[C@H](Cc1ccc(OCc2c(Cl)cccc2Cl)cc1)NC(=O)[C@@H]1OCO[C@H]1C(=O)Nc1ccccc1C(F)(F)F,900 nM,–,–
O=C(O)[C@H](Cc1ccc(OCc2c(Cl)cccc2Cl)cc1)NC(=O)[C@@H]1OCO[C@H]1C(=O)Nc1nccs1,200 nM,52%,–
Cc1nnc(NC(=O)[C@@H]2OCO[C@H]2C(=O)N[C@@H](Cc2ccc(OCc3c(Cl)cccc3Cl)cc2)C(=O)O)s1,1500 nM,–,–
O=C(O)[C@H](Cc1ccc(OCc2c(Cl)cccc2Cl)cc1)NC(=O)[C@@H]1OCO[C@H]1C(=O)Nc1c(F)cccc1F,500 nM,–,–
O=C(O)[C@H](Cc1ccc(OCc2c(Cl)cccc2Cl)cc1)NC(=O)[C@@H]1OCO[C@H]1C(=O)Nc1c(Cl)cccc1Cl,700 nM,–,–
O=C(O)[C@H](Cc1ccc(OCc2c(Cl)cccc2Cl)cc1)NC(=O)[C@@H]1OCO[C@H]1C(=O)Nc1c(Cl)cncc1Cl,400 nM,–,–
CC(C)(C)c1cc(NC(=O)[C@@H]2OCO[C@H]2C(=O)N[C@@H](Cc2ccc(OCc3c(Cl)cccc3Cl)cc2)C(=O)O)n(Cc2ccccc2)n1,1000 nM,–,–
Cc1ccc(-n2nc(C(C)(C)C)cc2NC(=O)[C@@H]2OCO[C@H]2C(=O)N[C@@H](Cc2ccc(OCc3c(Cl)cccc3Cl)cc2)C(=O)O)cc1,2600 nM,–,–
O=C(O)[C@H](Cc1ccc(OCc2c(Cl)cccc2Cl)cc1)NC(=O)[C@@H]1OCO[C@H]1C(=O)N1CCOCC1,3400 nM,–,–
Cc1ccc(S(=O)(=O)N2CCC[C@H]2C(=O)N[C@@H](Cc2ccccc2)C(=O)O)cc1 (Tos-Pro-Phe-OH),–,–,10%
